Laboratory results from US20250000883A1, “TREATING NEUROINFLAMMATORY CONDITIONS” (AN2 Therapeutics, Inc., priority 2021, published 2025).
In brackets after ≈: the same amount, converted by molar mass.

System: Porphyromonas gingivalis
Assay: Antibacterial MIC testing (agar dilution, anaerobic)
Type: cell-based
Conditions: supplemented Brucella agar, 44 h, 36° C.
Description: Epetraborole was placed is a stock solution and stored at −70° C. Serial two-fold dilutions were prepared on the day of testing.
Porphyromonas gingivalis organisms were recovered from clinical samples, identified by standard methods or by partial sequencing of the 16S gene and stored in 20% skim milk at −70° C. All isolates were taken from the freezer and subcultured at least twice on supplemented Brucella agar to ensure good growth. Inocula were prepared by direct suspensions of cells from 48 h cultures into saline or Brucella broth.
For all tested organisms, supplemented Brucella agar deeps were obtained from Anaerobe Systems (Morgan Hill, CA). Defibrinated sheep blood (Hardy Diagnostics, Santa Maria, CA) was frozen and thawed to produce laked blood. On the day of testing, laked blood and the antimicrobial agents were added to the tubes of molten agar before pouring the agar dilution plates. The strains were applied to the plates using a Steers multipronged inoculator for a final concentration of approximately 10^5 cfu/spot. After 44 h incubation at 36° C. in the anaerobic chamber incubator, the plates were examined for growth, and the MICs interpreted.

NC[C@H]1OB(O)c2c(OCCCO)cccc21 [Epetraborole]
MIC (Po. gingivalis clinical isolate RMA# 15676 (Abd-perit.fld)): 2 µg/mL (≈ 8.44 µM)
MIC (Po. gingivalis clinical isolate RMA# 15913 (Abd-perit.fld)): 2 µg/mL (≈ 8.44 µM)
MIC (Po. gingivalis clinical isolate RMA# 16269 (Abd-perit.fld)): 0.125 µg/mL (≈ 0.527 µM)
MIC (Po. gingivalis clinical isolate RMA# 16389 (Abd-perit.fld)): 0.5 µg/mL (≈ 2.11 µM)
